Literature values, collected in patent US8038645B2 (Bayer Technology Services GmbH, priority 2005, dated 2011).
Like-named read-outs stand apart in the source and are kept apart here.

Legend:
[1] = input parameter for PK-Sim
[2] = input parameter for PK-Sim; remark: listed apart in the source

For CC(C)c1cccc(C(C)C)c1O [propofol], the Lipophilicity [1] is listed as 2.6, the “Free plasma fraction (age-dependent)” value [2] is listed as 0.020-0.025 and the “Blood clearance in ml/min: mean (std. dev.)” value (“Blood clearance in ml/min” for short) (Ickz et al., adults, mean age 45.2 years, 21 mg/kg/h for 5 min, then 12 mg/kg/h for 10 min, then 6 mg/kg/h) is listed as 33.8 (7.8) ml/min. The “Blood clearance in ml/min” value (Kanto et al., pregnant women, mean age 27.1 years, 2.5 mg/kg bolus over 0.17 min) was 27.5 (5.5) ml/min, the “Blood clearance in ml/min” value (Mertens et al., young men, mean age 24 years, 1 mg/kg bolus over 1 min, then 3 mg/kg/h) was 31.2 (2.8) ml/min and the “Blood clearance in ml/min” value (Raoof et al., children, mean age 1.9 years, 3 mg/kg iv) was 38.7 (6.8) ml/min. The “Blood clearance in ml/min” value (Saint-Maurice et al., children, mean age 5.5 years, 2.5 mg/kg bolus over 0.33 min) was 30.6 (2.9) ml/min, the “Blood clearance in ml/min” value (Valtonen et al., children, mean age 6.5 years, 2.5 mg/kg bolus over 0.5 min) was 32.0 (16.8) ml/min and the “Clearance (age-dependent)” value (input parameter for PK-Sim) was 29 to 50 mL/min/kg.
